23 compounds from ChEMBL document CHEMBL1137399, “Synthesis, structure-activity relationships, and antitumor studies of 2-benzoxazolyl hydrazones derived from alpha-(N)-acyl heteroaromatics” (J Med Chem, 2006) can be followed below.

Calls of active or inactive are those of the source. The calls are words filed in the database; no cut-off is given here.

Experiment [1] concerns CCRF-CEM. As to the kind of experiment: Antiproliferative activity against CCRF-CEM cells by MTT assay. The experiment is classed as functional, cell-based. Particulars: Homo sapiens. (Tetrazolium assays rely on reduction of a dye to a coloured formazan, in cell work by metabolically active cells.)
The subject of experiment [2] is Burkitts lymphoma cell. As to the kind of experiment: Antiproliferative activity against Burkitt cells by MTT assay. The experiment is classed as functional, cell-based. Particulars: Homo sapiens.
Experiment [3] concerns HeLa. As to the kind of experiment: Antiproliferative activity against HeLa cells by SRB assay. Format: functional, cell-based. The note with it: Homo sapiens. (In general: Sulforhodamine B stains cellular protein and so reports cell mass.)
For experiment [4], the system named is HT-29. As to the kind of experiment: Antiproliferative activity against HT29 cells by SRB assay. The experiment is classed as functional, cell-based. Particulars: Homo sapiens.
For experiment [5], the system named is HeLa. As to the kind of experiment: Antiproliferative activity against HeLa-mdr1 cells overexpressing P-glycoprotein in presence of verapamil by SRB assay. Particulars: Homo sapiens. Format: functional, cell-based.
Experiment [6] deals with OVCAR-3. Briefly: Net cell kill against human OVCAR-3 cells by hollow fiber assay. Format: functional, cell-based.
Experiment [7] relates to HL-60. Briefly: Ratio for antiproliferative activity against HL60/AR cells to wild type HL60 by MTT assay. Format: functional, Homo sapiens.
Experiment [8] relates to SF-295. As to the kind of experiment: Net cell kill against human SF295 cells by hollow fiber assay. The experiment is classed as functional, cell-based.

As usually defined, the IC50 is the concentration needed to halve the response being measured. A lower IC50 goes with higher potency. As to `C/C(=N\Nc1nc2ccccc2o1)c1nccc2ccccc12`, the IC50 in experiment [1] turned out to be 350 nM; in experiment [2], 200 nM; in experiment [3], 340 nM; in experiment [4], 1930 nM.

As for `C/C(=N\Nc1nc2ccccc2o1)c1cnc(C)cn1`, the IC50 was determined as 620 nM in experiment [1], 150 nM in experiment [2], 370 nM in experiment [3] and 290 nM in experiment [4].

With `c1ccc(/C(=N/Nc2nc3ccccc3o2)C2CC2)nc1`, the IC50 in experiment [2] is 185 nM; in experiment [3], 4490 nM; in experiment [4], 20600 nM.

Consider `C/C(=N\Nc1nc2ccccc2o1)c1cccc[n+]1[O-]`, for which the IC50 in experiment [2] is 27 nM; in experiment [3] it was 288 nM; in experiment [4], 4780 nM.

In the case of `CC(C)(C)/C(=N\Nc1nc2ccccc2o1)c1ccccn1`, the IC50 in experiment [1], in experiment [2], in experiment [3] and in experiment [4] was over 10000 nM in each case.

For `C/C(=N\Nc1nc2ccccc2o1)c1ccc(C)nn1`, the IC50 in experiment [1] was 2550 nM; in experiment [2], 6270 nM; in experiment [3] it was 3390 nM; in experiment [4] it was 6770 nM.

As for `C/C(=N\Nc1nc2ccccc2o1)c1ncccn1`, the IC50 is 130 nM in experiment [1], 30 nM in experiment [2], 180 nM in experiment [3] and 270 nM in experiment [4].

For the compound `c1ccc(/C(=N\Nc2nc3ccccc3o2)c2ccccn2)cc1`, the IC50 in experiment [1] worked out at 78 nM; in experiment [2], 120 nM; in experiment [3], 43 nM; in experiment [4] it was 44 nM.

On to `C/C(=N\Nc1nc2ccccc2o1)c1cc(C)ncn1`, for which the IC50 in experiment [1] came out at 230 nM; in experiment [2], 42 nM; in experiment [3] it was 210 nM; in experiment [4] it was 110 nM.

In the case of `CC[C@]1(O)C[C@@H]2CN(CCc3c([nH]c4ccccc34)[C@@](C(=O)OC)(c3cc4c(cc3OC)N(C)[C@H]3[C@@](O)(C(=O)OC)[C@H](OC(C)=O)[C@]5(CC)C=CCN6CC[C@]43[C@@H]65)C2)C1`, the outcome in experiment [5] was Active.

`C/C(=N\Nc1nc2ccccc2o1)c1cccnc1`: the IC50 in experiment [1], in experiment [2], in experiment [3] and in experiment [4] was over 100000 nM in each case.

`C/C(=N\Nc1nc2ccccc2o1)c1ccc2ccccc2n1`: the IC50 in experiment [1] was 7040 nM; in experiment [2] it was 5490 nM; in experiment [3], 4530 nM; in experiment [4] it was 7760 nM.

Take `C/C(=N\Nc1nc2ccccc2o1)c1cc2ccccc2cn1`: the result in experiment [6] and in experiment [8] was Active. Also, in experiment [5], the result was inactive. In addition, the IC50 in experiment [1] worked out at 140 nM; in experiment [2] it was 30 nM; in experiment [3], 100 nM; in experiment [4], 40 nM. In experiment [7], the “Ratio IC50” value is given as 1.7.

For the compound `C/C(=N\Nc1nc2ccccc2o1)c1ccncn1`, the IC50 in experiment [1] turned out to be 360 nM; in experiment [2], 144 nM; in experiment [3], 500 nM; in experiment [4], 190 nM.

In the case of `CCC/C(=N\Nc1nc2ccccc2o1)c1ccccn1`, the IC50 in experiment [1] is 6 nM; in experiment [2], 6 nM; in experiment [3] it was 153 nM; in experiment [4], 851 nM.

Regarding `C/C(=N\N(C)c1nc2ccccc2o1)c1ccccn1`, the IC50 in experiment [1], in experiment [2], in experiment [3] and in experiment [4] was over 50000 nM in each case.

In the case of `CC(C)/C(=N\Nc1nc2ccccc2o1)c1ccccn1`, the IC50 was 21 nM in experiment [1], 14 nM in experiment [2], 185 nM in experiment [3] and 645 nM in experiment [4].

Regarding `c1ccc(C(=NNc2nc3ccccc3o2)c2ccccn2)nc1`, the IC50 in experiment [1] was 44 nM; in experiment [2], 12 nM; in experiment [3], 156 nM; in experiment [4] it was 6980 nM.

Take `C/C(=N\Nc1nc2ccccc2o1)c1cccnn1`: the IC50 amounted to 720 nM in experiment [1], 1300 nM in experiment [2], 1180 nM in experiment [3] and 2640 nM in experiment [4].

As to `C/C(=N\Nc1nc2ccccc2o1)c1ccccn1`, the 50% inhibitory concentration (IC50) in experiment [1] was 24 nM; in experiment [2], 5 nM; in experiment [3] it was 770 nM; in experiment [4], 1430 nM.

As to `C/C(=N\Nc1nc2ccccc2o1)c1nccnc1C`, the IC50 was 1300 nM in experiment [1], 900 nM in experiment [2], 1860 nM in experiment [3] and 2140 nM in experiment [4].

Consider `c1ccc(C/C(=N\Nc2nc3ccccc3o2)c2ccccn2)cc1`, for which the IC50 is over 10000 nM in experiment [1], over 10000 nM in experiment [2], 42 nM in experiment [3] and 219 nM in experiment [4].

For `CC/C(=N\Nc1nc2ccccc2o1)c1ccccn1`, the IC50 in experiment [1] was determined as 4 nM; in experiment [2], 2 nM; in experiment [3] it was 52 nM; in experiment [4], 409 nM.
